# Test results reported in patent US20220387457A1 (Qlaris Bio, Inc., priority 2020, published 2022).
# Columns and labels:
# [1] = tested on: Dutch-belted pigmented rabbits (IOP); conditions: previously reported; cited from earlier work
# rats = assay: 28-day intravenous administration of CKLP1 in rats; assay type: in vivo, rat
# Source text: Three groups of rats were intravenously administered different doses of CKLP1. The study was 28 days long with a 14-day recovery period.
# beagle dogs = assay: Safety findings, 28-day topical ophthalmic dosing in beagle dogs; assay type: in vivo, beagle dog
# Description: In the study, dogs (3 males and 3 females) received bilateral daily topical administration of 40 μL/eye of 2.0%, 4.0%, or 8.0% as measured in mg/mL (equivalent to 0.8, 1.6, or 3.2 mg CKLP1 per eye) of CKLP1 in phosphate buffered saline. Based on an average male dog weight of 7.9 kg at the start of the study, these doses were equivalent to 0.20 mg/kg, 0.41 mg/kg, or 0.81 mg/kg and based on an average female dog weight of 6.0 kg at the start of the study, these doses were equivalent to 0.27 mg/kg, 0.53 mg/kg, or 1.07 mg/kg. Blood was collected for toxicokinetic analysis pre-dose and at 1, 2, 4, 8, 12, and 24 hours post dosing on days 1 and 28. In addition, 2 animals of each gender were allowed 336 hours (14 days) of recovery time following the final dose, at which point final blood samples were obtained.
# acid phosphatase = assay: Conversion of CKLP1 by acid phosphatase, LC/MS-MS, pH 7.4; assay type: biochemical, human; conditions: up to 2 hours
# Description: (§1) Conversion of CKLP1 (200 μM-5.0 mM) was examined by LC/MS-MS following incubation at pH 7.4 with either human alkaline phosphatase (ALP), acid phosphatase, or 5′-nucleotidase (2.01 nM-1.0 μM) for up to 2 hours.
# [2] = target: T1, placenta-derived human alkaline phosphatase (Homo sapiens, UniProt P05187); assay: Dose- and time-dependent conversion of CKLP1 to levcromakalim by placenta-derived human alkaline phosphatase, pH 10; assay type: biochemical
# T1 construct: varying concentrations of placenta-derived human alkaline phosphatase; from tissue; host or cells: human placenta
# T1 sequence (P05187 23-506): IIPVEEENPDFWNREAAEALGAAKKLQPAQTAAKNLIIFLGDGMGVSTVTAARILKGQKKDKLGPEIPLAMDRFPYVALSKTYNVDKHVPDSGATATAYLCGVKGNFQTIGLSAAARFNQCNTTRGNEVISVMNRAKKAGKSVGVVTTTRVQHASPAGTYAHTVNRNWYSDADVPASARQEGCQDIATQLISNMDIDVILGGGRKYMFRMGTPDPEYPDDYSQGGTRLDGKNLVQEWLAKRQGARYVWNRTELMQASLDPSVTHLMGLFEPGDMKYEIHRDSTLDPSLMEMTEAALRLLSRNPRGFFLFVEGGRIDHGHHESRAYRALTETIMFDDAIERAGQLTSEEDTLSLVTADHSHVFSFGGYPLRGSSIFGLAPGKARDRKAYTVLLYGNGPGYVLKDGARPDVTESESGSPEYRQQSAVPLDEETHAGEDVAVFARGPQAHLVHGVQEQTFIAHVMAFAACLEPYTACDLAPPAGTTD
# Description: To activate CKLP1, the phosphate is hydrolyzed from phosphatases to produce leveromakalim, the active moiety that can open (activate) ATP-sensitive potassium channels.
# In the first experiment, a fixed concentration of CKLP1 solution was incubated with varying concentrations of placenta-derived human alkaline phosphatase. To accomplish this, placenta-derived human alkaline phosphatase (0.0002 U) in a 100-μL volume was added to each of thirteen 1.5-mL tubes. To each tube, CKLP1 was then added at a fixed concentration [10 mM (0.4%)]. Tubes were inverted twice and incubated in a water bath at 37° C. At each of 13 different time points (0, 1, 2.5, 5, 15, and 30 minutes and at 1, 2, 4, 8, 24, 48, and 72 hours), a single tube was removed, and the reaction was stopped by the addition of 2 volumes (200 μL) of acetonitrile. Samples were stored at −80° C. The experiment was repeated with 10 mM CKLP1 (0.4%) in the presence of placenta-derived human alkaline phosphatase at concentrations of 0.002 U, 0.02 U, and 0.2 U. All assays were performed at pH 10.
# In a second experiment, a fixed concentration of placenta-derived human alkaline phosphatase was incubated with varying concentrations of CKLP1. To accomplish this, a fixed concentration of 0.02 U of placenta-derived human alkaline phosphatase in a 100-μL volume was added to each of thirteen 1.5-mL tubes. To each tube, CKLP1 was then added [0.01 mM (0.0004%)]. Tubes were inverted twice and incubated in a water bath at 37° C. At each of 13 different time points (0, 1, 2.5, 5, 15, and 30 minutes and at 1, 2, 4, 8, 24, 48, and 72 hours), a single tube was removed and the reaction was stopped by the addition of 2 volumes (200 μL) of acetonitrile. Samples were stored at −80° C. The experiment was repeated with the same concentration of placenta-derived human alkaline phosphatase (0.02 U) and various concentrations of CKLP1 [0.1 mM (0.004%), 1 mM (0.04%), 10 mM (0.4%), 20 mM (0.8%), and 40 mM (1.6%)]. All assays were performed at pH 10.
# hound dogs = assay: Histology, blood chemistry and tolerability after bilateral topical CKLP1 in hound dogs
# Source text: To evaluate local and systemic side effects of bilateral topical administration of CKLP1 to the eyes, additional tissue samples were harvested for histological examination. Tissues collected and fixed during necropsy were processed into paraffin blocks, sectioned, and stained with hematoxylin and eosin.
# 5′-nucleotidase = assay: Conversion of CKLP1 by 5′-nucleotidase, LC/MS-MS, pH 7.4; assay type: biochemical, human; conditions: up to 2 hours
# Description: as §1
# [3] = tested on: 3D-glaucomatous human trabecular meshwork/Schlemm's canal tissue model; assay: Outflow facility by perfusion in 3D-glaucomatous human trabecular meshwork/Schlemm's canal constructs; assay type: cell-based; conditions: levcromakalim 1 μM, TGF-β2 treated constructs, 4 donors, vs TGF-β2 (P<0.0001) or Y-27632 (P<0.05)
# Description: Bioengineered 3D conventional outflow tract constructs using 4 donors (ages 47-91) were treated with […] (5 ng/mL) for 6 days. […] Protein expression of α-smooth muscle actin (α-SMA), CD31, endothelin-I, fibronectin, VE-cadherin, phospho-eNOS and total eNOS was analyzed via western blot. Cellular expression of α-SMA, fibronectin, phospho-eNOS and total eNOS was determined by immunocytochemistry and confocal microscopy. Statistical significance was determined by one-way ANOVA with a Tukey's multiple comparisons test, or by two-way ANOVA.
smiles,measurement,setting,value
CC1(C)Oc2ccc(C#N)cc2[C@@H](N2CCCC2=O)[C@@H]1OP(=O)(O)O [CKLP1],IOP lowered by,[1],~16%
same,"food consumption, body weight, body weight gains vs control","rats; IV 0.15, 1.5, 15 mg/kg/day, 28 days",no difference
same,Clinical Signs,rats; IV CKLP1 0.15 mg/kg/day,Red skin forelimbs and hindlimbs; red pinnae; red
same,Clinical Signs,rats; IV CKLP1 1.5 mg/kg/day,Red skin forelimbs and hindlimbs; red skin
same,Clinical Signs,rats; IV CKLP1 15 mg/kg/day,Red skin forelimbs and hindlimbs; red skin
same,peripheral vasodilation,rats; following intravenous administration in rats,induces peripheral vasodilation
same,"dose with red skin forelimbs and hindlimbs, red pinnae, red scrotums","rats; male and female rats, IV",≥ 0.15 mg/kg/day
same,dose with red skin forepaws,"rats; males and females, IV",≥ 1.5 mg/kg/day
same,eye color,"rats; males, 15 mg/kg",Abnormal eye color
same,non-adverse ocular effects,beagle dogs; 3.2 mg/eye/dose (8%),slight to moderate redness (congestion)
same,"microscopic findings, lacrimal gland",beagle dogs; 2 females at 3.2 mg/eye/dose (8%),mild lacrimal gland acinar atrophy
same,reversibility of ocular findings,beagle dogs; 14-day recovery period,all ocular findings were fully recovered
same,"microscopic findings, corneal epithelium",beagle dogs; males at ≥1.6 mg/eye/dose (4%) and 1 female at 3.2 mg/eye/dose (8%),mild increased mitoses in the corneal epithelium
same,no-observed-adverse-effect level (NOAEL),"beagle dogs; topical, 28 days, % as measured in mg/mL",8.0%
same,conversion of CKLP1 to levcromakalim,acid phosphatase,not
same,conversion rate of CKLP1 to levcromakalim at 24 hours,"[2]; ALP 0.02 U/100 μL, CKLP1 0.01 mM",26.9%
same,conversion rate of CKLP1 to levcromakalim at 24 hours,"[2]; ALP 0.02 U/100 μL, CKLP1 0.1 mM",20.0%
same,conversion rate of CKLP1 to levcromakalim at 24 hours,"[2]; ALP 0.02 U/100 μL, CKLP1 1 mM",5.2%
same,conversion rate of CKLP1 to levcromakalim at 24 hours,"[2]; ALP 0.02 U/100 μL, CKLP1 10 mM",4.9%
same,conversion rate of CKLP1 to levcromakalim at 24 hours,"[2]; ALP 0.02 U/100 μL, CKLP1 20 mM",3.2%
same,conversion rate of CKLP1 to levcromakalim at 24 hours,"[2]; ALP 0.02 U/100 μL, CKLP1 40 mM",1.7%
same,conversion rate of CKLP1 to levcromakalim at 24 hours,"[2]; CKLP1 10 mM, ALP 0.0002 U/100 μL",0.4%
same,conversion rate of CKLP1 to levcromakalim at 24 hours,"[2]; CKLP1 10 mM, ALP 0.002 U/100 μL",1.3%
same,conversion rate of CKLP1 to levcromakalim at 24 hours,"[2]; CKLP1 10 mM, ALP 0.02 U/100 μL",4.8%
same,conversion rate of CKLP1 to levcromakalim at 24 hours,"[2]; CKLP1 10 mM, ALP 0.2 U/100 μL",13.7%
same,"conversion of CKLP1 to levcromakalim, maximum","[2]; CKLP1 fixed 10 mM (0.4%), ALP 0.0002-0.2 U/100 μL, up to 72 hours, pH 10, 37° C.",≤ 21%
same,"overall tolerability, ocular or systemic toxicity",hound dogs; bilateral eye treatment with CKLP1,well tolerated and did not result in any observed ocular or systemic toxicity
same,histology of 40 different tissues,"hound dogs; bilateral topical 10 mM CKLP1, 12-13 days",none of the analyzed tissues showed any significant pathology
same,blood chemistry,"hound dogs; bilateral topical 10 mM CKLP1, except albumin, slightly lower in treated and control",within normal range
same,conversion of CKLP1 to levcromakalim,5′-nucleotidase,not
"CC1(C)Oc2ccc(C#N)cc2[C@@H](N2CCCC2=O)[C@@H]1O [Levcromakalim, levcromakalim, reference compound]",outflow facility (hydraulic conductivity),[3],significantly improved outflow facility
same,outflow facility (hydraulic conductivity),[3]; listed as Leveromakalim,significantly increased outflow facility
